Measurements reported in publication PMC8213057, “Targeting ALK2: An Open Science Approach to Developing Therapeutics for the Treatment of Diffuse Intrinsic Pontine Glioma” (Journal of Medicinal Chemistry, 2020).
Several values for one entry are separate records, joined by “and”; a condition that tells them apart may be missing. Identical values can stand only once.

Assays:
[1] = human liver microsomal stability assay; type: in vitro ADME; conditions: human, microsomes, pH 7.4, human liver microsomes, 60 min, 37 °C, read-out: HLM % Remaining at 1h
BRSK2 = biological target: T1, BRSK2 (Homo sapiens, UniProt Q8IWQ3); conditions: 1 μM; Run 1, Run 2
T1 sequence (Q8IWQ3 1-736): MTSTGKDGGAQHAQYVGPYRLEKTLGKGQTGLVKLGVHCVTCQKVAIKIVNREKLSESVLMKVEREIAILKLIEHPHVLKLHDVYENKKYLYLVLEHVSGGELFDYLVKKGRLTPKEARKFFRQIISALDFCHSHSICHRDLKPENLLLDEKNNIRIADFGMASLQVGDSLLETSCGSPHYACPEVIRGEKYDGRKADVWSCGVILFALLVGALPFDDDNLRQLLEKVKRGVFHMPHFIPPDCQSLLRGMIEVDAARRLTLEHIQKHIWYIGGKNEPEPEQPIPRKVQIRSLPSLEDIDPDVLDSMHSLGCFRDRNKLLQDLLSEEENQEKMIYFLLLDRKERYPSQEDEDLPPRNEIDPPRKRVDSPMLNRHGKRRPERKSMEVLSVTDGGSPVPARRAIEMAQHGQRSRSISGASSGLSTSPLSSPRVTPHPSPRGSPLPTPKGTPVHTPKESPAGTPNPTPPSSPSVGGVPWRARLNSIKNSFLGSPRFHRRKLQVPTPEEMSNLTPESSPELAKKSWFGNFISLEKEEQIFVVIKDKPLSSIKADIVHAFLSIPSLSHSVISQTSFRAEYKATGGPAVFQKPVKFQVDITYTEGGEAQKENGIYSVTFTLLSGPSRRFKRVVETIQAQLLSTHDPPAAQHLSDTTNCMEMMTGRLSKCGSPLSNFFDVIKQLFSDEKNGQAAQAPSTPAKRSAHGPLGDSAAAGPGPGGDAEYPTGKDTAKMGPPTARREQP

LYN B = LYN B (Homo sapiens, UniProt P07948); conditions: 1 μM; Run 1, Run 2
Chain of LYN B (P07948 1-491 isoform P07948-2): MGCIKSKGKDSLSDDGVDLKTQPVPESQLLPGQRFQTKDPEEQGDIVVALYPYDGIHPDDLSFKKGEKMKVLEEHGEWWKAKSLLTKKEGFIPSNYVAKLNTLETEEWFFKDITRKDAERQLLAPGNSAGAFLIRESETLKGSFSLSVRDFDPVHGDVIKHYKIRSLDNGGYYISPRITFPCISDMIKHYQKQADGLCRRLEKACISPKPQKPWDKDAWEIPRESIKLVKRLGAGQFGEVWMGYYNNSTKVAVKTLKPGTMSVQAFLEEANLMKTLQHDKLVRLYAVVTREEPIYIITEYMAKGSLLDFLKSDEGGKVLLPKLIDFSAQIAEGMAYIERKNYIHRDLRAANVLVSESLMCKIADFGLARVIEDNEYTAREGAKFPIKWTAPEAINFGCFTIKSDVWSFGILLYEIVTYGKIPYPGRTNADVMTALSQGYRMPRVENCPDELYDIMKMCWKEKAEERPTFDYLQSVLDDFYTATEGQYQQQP

NIM1 = NIM1 (Homo sapiens, UniProt Q8IY84); conditions: 1 μM; Run 1, Run 2
Chain of NIM1 (Q8IY84 whole entry): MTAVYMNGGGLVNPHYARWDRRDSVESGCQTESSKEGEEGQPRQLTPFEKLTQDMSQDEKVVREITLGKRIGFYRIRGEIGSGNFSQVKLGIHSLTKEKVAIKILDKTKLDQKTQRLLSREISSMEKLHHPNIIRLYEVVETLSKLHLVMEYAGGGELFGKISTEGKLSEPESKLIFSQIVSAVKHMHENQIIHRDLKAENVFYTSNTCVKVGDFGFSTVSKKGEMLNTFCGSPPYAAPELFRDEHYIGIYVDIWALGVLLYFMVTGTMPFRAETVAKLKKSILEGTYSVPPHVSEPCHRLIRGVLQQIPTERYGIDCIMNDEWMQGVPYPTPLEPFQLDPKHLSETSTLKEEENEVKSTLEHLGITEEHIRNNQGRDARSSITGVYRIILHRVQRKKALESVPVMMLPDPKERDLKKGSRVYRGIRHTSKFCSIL

PAK1 = PAK1 (Homo sapiens, UniProt Q13153); conditions: 1 μM; Run 1, Run 2
Chain of PAK1 (Q13153 whole entry): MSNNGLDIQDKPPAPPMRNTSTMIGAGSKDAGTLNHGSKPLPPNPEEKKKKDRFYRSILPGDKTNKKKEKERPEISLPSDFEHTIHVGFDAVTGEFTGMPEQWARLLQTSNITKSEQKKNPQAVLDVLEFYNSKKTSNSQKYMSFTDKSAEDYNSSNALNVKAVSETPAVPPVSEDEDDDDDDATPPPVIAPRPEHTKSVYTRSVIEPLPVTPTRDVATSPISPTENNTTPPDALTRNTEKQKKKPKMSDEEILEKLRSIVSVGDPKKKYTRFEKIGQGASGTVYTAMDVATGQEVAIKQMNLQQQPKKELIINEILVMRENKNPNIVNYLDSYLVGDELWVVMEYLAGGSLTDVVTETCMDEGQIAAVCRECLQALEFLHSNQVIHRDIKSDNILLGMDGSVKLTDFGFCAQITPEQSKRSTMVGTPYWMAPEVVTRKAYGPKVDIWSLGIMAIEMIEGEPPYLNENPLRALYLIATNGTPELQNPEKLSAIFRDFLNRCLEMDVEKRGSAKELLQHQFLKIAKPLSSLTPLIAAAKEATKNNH

PAK2 = PAK2 (Homo sapiens, UniProt Q13177); conditions: 1 μM; Run 1, Run 2
Chain of PAK2 (Q13177 whole entry): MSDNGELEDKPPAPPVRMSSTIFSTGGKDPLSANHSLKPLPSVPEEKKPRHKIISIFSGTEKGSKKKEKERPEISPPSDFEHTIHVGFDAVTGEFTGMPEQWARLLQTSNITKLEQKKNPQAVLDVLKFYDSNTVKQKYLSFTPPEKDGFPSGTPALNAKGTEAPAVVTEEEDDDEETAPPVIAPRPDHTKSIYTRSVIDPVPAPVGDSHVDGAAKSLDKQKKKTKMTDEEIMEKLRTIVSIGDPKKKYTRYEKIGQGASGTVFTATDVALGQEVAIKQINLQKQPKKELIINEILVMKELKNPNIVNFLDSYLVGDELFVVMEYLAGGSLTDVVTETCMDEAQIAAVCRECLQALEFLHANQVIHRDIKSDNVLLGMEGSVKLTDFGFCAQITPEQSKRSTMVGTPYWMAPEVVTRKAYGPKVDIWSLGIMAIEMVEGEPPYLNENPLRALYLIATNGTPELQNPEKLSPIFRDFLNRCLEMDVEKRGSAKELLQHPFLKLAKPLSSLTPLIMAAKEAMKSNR

PIM2 = PIM2 (Homo sapiens, UniProt Q9P1W9); conditions: 1 μM; Run 1, Run 2
Chain of PIM2 (Q9P1W9 whole entry): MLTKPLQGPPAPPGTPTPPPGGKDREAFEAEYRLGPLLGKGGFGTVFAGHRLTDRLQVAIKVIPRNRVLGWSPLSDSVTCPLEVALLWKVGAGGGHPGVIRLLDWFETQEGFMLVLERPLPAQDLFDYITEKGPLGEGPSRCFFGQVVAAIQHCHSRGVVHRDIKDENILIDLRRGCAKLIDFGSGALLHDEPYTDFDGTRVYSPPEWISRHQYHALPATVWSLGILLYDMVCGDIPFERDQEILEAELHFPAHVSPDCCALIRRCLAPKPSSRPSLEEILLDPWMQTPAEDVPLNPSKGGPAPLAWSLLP

PKAcb = PKAcb (Homo sapiens, UniProt P22694); conditions: 1 μM; Run 1, Run 2
FRK/PTK5 = FRK/PTK5 (Homo sapiens, UniProt P42685); assay: biochemical; conditions: read-out: % enzyme activity, 1 μM; Run 1, Run 2
Chain of FRK/PTK5 (P42685 whole entry): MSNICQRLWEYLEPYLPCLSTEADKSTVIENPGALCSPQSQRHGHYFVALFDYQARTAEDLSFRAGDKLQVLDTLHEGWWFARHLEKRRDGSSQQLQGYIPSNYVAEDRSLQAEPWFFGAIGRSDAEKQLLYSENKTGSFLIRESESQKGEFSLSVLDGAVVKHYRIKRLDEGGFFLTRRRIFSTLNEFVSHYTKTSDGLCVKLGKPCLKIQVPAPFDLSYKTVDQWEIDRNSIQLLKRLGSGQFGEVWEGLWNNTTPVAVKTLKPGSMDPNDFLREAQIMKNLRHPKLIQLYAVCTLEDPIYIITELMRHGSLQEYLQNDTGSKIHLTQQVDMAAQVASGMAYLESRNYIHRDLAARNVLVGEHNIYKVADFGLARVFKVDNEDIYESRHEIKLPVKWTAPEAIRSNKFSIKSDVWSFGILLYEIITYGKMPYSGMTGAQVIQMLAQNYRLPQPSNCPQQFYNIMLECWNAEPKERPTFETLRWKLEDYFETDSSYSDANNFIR

GCK/MAP4K2 = biological target: T2, GCK/MAP4K2 (Homo sapiens, UniProt Q12851); assay: biochemical; conditions: read-out: % enzyme activity, 1 μM; Run 1, Run 2
T2 sequence (Q12851 1-820): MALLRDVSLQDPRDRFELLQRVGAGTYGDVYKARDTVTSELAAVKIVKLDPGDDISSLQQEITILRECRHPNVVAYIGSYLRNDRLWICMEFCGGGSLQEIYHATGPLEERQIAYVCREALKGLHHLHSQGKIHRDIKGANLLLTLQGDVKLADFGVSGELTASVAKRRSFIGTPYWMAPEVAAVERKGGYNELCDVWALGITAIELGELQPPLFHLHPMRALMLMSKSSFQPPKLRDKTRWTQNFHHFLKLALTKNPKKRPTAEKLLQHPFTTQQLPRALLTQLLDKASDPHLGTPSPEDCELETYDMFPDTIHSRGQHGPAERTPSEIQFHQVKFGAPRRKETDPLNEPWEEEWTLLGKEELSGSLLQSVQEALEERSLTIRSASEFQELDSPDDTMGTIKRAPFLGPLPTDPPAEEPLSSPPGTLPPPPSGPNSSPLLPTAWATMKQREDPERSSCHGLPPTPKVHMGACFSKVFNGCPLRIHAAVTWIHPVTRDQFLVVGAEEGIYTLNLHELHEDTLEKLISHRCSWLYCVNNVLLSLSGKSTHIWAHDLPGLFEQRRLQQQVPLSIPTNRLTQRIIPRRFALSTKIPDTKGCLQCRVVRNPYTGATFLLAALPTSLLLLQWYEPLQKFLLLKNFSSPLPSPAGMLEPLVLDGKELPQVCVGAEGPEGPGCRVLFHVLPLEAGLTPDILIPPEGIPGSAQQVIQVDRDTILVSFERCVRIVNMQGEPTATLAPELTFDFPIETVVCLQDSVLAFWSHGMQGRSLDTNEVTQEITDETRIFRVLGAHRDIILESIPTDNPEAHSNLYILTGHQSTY

NEK2 = biological target: T3, NEK2 (Homo sapiens, UniProt P51955); assay: biochemical; conditions: read-out: % enzyme activity, 1 μM; Run 1, Run 2
T3 sequence (P51955 1-445): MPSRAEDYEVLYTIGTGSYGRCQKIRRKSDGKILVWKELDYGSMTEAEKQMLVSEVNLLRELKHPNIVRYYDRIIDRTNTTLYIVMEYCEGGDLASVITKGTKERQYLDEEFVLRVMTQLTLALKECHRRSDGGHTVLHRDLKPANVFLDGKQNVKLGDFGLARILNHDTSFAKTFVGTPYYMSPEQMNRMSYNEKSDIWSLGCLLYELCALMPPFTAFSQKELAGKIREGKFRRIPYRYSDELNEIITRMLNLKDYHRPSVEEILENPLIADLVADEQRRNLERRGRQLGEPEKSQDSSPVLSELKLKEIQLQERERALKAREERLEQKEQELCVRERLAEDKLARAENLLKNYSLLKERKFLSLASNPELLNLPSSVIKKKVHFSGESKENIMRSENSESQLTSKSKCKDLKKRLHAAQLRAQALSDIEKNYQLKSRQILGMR

NEK4 = NEK4 (Homo sapiens, UniProt P51957); assay: biochemical; conditions: read-out: % enzyme activity, 1 μM; Run 1, Run 2
Chain of NEK4 (P51957 whole entry): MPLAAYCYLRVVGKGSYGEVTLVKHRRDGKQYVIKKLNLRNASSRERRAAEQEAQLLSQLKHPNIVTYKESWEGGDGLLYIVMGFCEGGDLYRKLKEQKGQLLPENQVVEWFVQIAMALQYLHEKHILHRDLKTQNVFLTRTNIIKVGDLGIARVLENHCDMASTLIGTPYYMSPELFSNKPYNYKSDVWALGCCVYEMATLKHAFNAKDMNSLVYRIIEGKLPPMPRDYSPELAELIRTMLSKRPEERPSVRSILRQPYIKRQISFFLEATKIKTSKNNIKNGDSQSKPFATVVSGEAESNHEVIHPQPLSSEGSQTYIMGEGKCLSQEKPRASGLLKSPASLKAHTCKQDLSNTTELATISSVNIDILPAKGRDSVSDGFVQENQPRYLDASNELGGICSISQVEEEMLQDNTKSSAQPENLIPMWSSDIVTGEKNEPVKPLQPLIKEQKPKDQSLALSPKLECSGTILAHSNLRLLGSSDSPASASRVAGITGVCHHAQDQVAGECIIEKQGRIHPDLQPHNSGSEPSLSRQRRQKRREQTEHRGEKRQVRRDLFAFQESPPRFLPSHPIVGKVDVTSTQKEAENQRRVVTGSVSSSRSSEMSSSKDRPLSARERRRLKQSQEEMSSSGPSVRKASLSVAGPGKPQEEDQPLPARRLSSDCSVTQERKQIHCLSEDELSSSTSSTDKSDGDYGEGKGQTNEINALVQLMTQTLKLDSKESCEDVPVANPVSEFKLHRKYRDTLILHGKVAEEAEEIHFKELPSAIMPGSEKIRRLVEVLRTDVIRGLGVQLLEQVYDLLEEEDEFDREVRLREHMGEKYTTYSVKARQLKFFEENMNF

PKCa = PKCa (Homo sapiens, UniProt P17252); assay: biochemical; conditions: read-out: % enzyme activity, 1 μM; Run 1, Run 2
PKCeta = PKCeta (Homo sapiens, UniProt P24723); assay: biochemical; conditions: read-out: % enzyme activity, 1 μM; Run 1, Run 2
Chain of PKCeta (P24723 whole entry): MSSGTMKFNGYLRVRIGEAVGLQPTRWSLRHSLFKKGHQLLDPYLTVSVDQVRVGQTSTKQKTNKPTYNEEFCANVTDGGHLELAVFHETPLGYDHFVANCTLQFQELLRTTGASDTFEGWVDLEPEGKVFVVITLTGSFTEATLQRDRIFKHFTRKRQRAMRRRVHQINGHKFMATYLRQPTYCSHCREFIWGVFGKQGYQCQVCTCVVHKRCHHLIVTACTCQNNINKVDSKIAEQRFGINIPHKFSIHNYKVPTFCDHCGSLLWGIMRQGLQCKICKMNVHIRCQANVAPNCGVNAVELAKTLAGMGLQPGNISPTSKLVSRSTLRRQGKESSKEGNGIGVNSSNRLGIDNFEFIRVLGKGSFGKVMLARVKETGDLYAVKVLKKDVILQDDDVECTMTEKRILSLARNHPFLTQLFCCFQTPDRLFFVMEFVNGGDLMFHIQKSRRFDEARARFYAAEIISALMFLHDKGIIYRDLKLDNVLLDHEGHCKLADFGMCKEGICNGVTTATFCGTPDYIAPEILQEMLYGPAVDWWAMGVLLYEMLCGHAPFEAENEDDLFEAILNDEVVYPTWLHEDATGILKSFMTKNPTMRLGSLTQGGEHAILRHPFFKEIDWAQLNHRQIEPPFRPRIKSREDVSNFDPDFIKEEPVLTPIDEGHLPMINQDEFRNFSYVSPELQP

YES/YES1 = YES/YES1 (Homo sapiens, UniProt P07947); assay: biochemical; conditions: read-out: % enzyme activity, 1 μM; Run 1, Run 2
Chain of YES/YES1 (P07947 whole entry): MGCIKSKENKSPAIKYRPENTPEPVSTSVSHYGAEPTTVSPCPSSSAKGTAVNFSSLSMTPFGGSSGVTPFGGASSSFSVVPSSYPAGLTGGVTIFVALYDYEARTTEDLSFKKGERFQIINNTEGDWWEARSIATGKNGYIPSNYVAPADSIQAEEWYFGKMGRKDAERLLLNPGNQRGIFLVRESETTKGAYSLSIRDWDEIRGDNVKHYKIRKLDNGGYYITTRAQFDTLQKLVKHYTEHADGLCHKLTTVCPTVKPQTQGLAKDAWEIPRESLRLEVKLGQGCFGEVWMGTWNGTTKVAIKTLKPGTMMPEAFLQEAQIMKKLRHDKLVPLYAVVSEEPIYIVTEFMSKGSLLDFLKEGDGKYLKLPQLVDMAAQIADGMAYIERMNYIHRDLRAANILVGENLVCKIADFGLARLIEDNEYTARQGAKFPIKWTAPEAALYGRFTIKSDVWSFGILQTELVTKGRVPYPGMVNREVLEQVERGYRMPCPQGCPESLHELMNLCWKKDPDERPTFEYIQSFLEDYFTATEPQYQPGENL

With COc1cc(-c2cncc(-c3ccc(N4C[C@@H](C)N(C)[C@@H](C)C4)cc3)c2C)cc(F)c1C(N)=O [Compound 26c, 2-Fluoro-6-methoxy-4-(4-methyl-5-(4-((3R,5S)-3,4,5-trimethylpiperazin-1-yl)phenyl)pyridin-3-yl)benzamide] the % enzyme activity at 1 μM (ALK2/ACVR1) was 13.7% and 11.7%, the % enzyme activity at 1 μM (FMS) was 79.5% and 78.8% and the remaining at 1 h, 1 μM [1] was 47.5%. The “% enzyme activity” value (BRSK2) was 76.84%, the “% enzyme activity” value (LYN B) was 97.80% and the “% enzyme activity” value (NIM1) was 97.81%. For the same compound, the “% enzyme activity” value (PAK1) was 100.98%, the “% enzyme activity” value (PAK2) was 103.95% and the “% enzyme activity” value (PIM2) was 98.82%. For the same compound, the “% enzyme activity” value (PKAcb) was 96.20%, the remaining activity at 1 µM (FRK/PTK5) was 98.2% and the remaining activity at 1 µM (GCK/MAP4K2) was 75.4%. The remaining activity at 1 µM (NEK2) was 98.5%, the remaining activity at 1 µM (NEK4) was 98% and the remaining activity at 1 µM (PKCa) was 90.3%. For the same compound, the remaining activity at 1 µM (PKCeta) was 98.3% and the remaining activity at 1 µM (YES/YES1) was 109%.
In the case of COc1cc(-c2cncc(-c3ccc(N4CCN(C)CC4)cc3)c2C)cc(F)c1C(N)=O [Compound 26a, 2-Fluoro-6-methoxy-4-(4-methyl-5-(4-(4-methylpiperazin-1-yl)phenyl)pyridin-3-yl)benzamide], the % enzyme activity at 1 μM (ALK2/ACVR1) is reported as 9.92% and 8.63%, the % enzyme activity at 1 μM (FMS) is reported as 82.2% and 75.7% and the remaining at 1 h, 1 μM [1] is reported as 78%. The “% enzyme activity” value (BRSK2) was 60.95%, the “% enzyme activity” value (LYN B) was 96.56% and the “% enzyme activity” value (NIM1) was 95.18%. The “% enzyme activity” value (PAK1) was 102.29%, the “% enzyme activity” value (PAK2) was 100.35% and the “% enzyme activity” value (PIM2) was 95.51%. For the same compound, the “% enzyme activity” value (PKAcb) was 95.19%, the remaining activity at 1 µM (FRK/PTK5) was 101% and the remaining activity at 1 µM (GCK/MAP4K2) was 61.8%. For the same compound, the remaining activity at 1 µM (NEK2) was 92.3%, the remaining activity at 1 µM (NEK4) was 98.5% and the remaining activity at 1 µM (PKCa) was 89.8%. For the same compound, the remaining activity at 1 µM (PKCeta) was 94.9% and the remaining activity at 1 µM (YES/YES1) was 105%.
